Type in all cases: in vivo
Test [1] concerns Ctenocephalides felis. Put plainly: Ctenocephalides felis in vitro contact test with adult cat fleas. As to conditions: application rate 5 μg/cm^2 (=500 g/ha), after 48 h. The protocol: Ctenocephalides felis—In Vitro Contact Tests with Adult Cat Fleas For the coating of the test tubes, 9 mg of active ingredient are first dissolved in 1 ml of acetone p.a. and then diluted to the desired concentration with acetone p.a. 250 μl of the solution are distributed homogeneously on the inner walls and the base of a 25 ml glass tube by turning and rocking on an orbital shaker (rocking rotation at 30 rpm for 2 h). With 900 ppm of active ingredient solution and internal surface area 44.7 cm^2, given homogeneous distribution, an area-based dose of 5 μg/cm^2 is achieved. After the solvent has evaporated off, the tubes are populated with 5-10 adult cat fleas (Ctenocephalides felis), sealed with a perforated plastic lid and incubated in a horizontal position at room temperature and ambient humidity. After 48 h, efficacy is determined. To this end, the tubes are stood upright and the fleas are knocked to the base of the tube. Fleas which remain motionless at the base or move in an uncoordinated manner are considered to be dead or moribund. […] 100% efficacy means that all the fleas were dead or moribund. 0% efficacy means that no fleas were harmed.

The test system of test [2] is Tetranychus urticae. Put plainly: Tetranychus urticae spray test, OP-resistant. Particulars: application rate 20 g/ha, spray on bean leaf discs, all stages, after 6 days. Here is the method:
Tetranychus urticae—Spray Test, OP-Resistant
(§1) To produce a suitable active ingredient formulation, 1 part by weight of active ingredient is dissolved with the specified parts by weight of solvent and made up to the desired concentration with water containing an emulsifier concentration of 1000 ppm. To produce further test concentrations, the formulation is diluted with emulsifier-containing water.
Discs of bean leaves (Phaseolus vulgaris) infested with all stages of the greenhouse red spider mite (Tetranychus urticae) are sprayed with an active ingredient formulation of the desired concentration.
After 6 days, the efficacy in % is determined. 100% means that all the spider mites have been killed; 0% means that no spider mites have been killed.

For test [3], the system named is Lucilia cuprina. Description: Lucilia cuprina test. As to conditions: application rate 100 ppm, L1 larvae, after 2 days. Here is the method:
Lucilia cuprina Test Solvent: dimethyl sulfoxide To produce a suitable active ingredient formulation, 10 mg of active ingredient are mixed with 0.5 ml of dimethyl sulfoxide, and the concentrate is diluted with water to the desired concentration. About 20 L1 larvae of the Australian sheep blowfly (Lucilia cuprina) are transferred into a test vessel containing minced horsemeat and the active ingredient formulation of the desired concentration. After 2 days, the kill in % is determined. 100% means that all the larvae have been killed; 0% means that no larvae have been killed.

For test [4], the system named is Phaedon cochleariae. Put plainly: Phaedon cochleariae spray test. Particulars: foliar, 168 h, application rate 100 g/ha, spray on Chinese cabbage leaf discs, larvae, after 7 days, read-out: efficacy in %. Here is the method:
Phaedon cochleariae—Spray Test
as §1
Discs of Chinese cabbage leaves (Brassica pekinensis) are sprayed with an active ingredient formulation of the desired concentration and, after drying, populated with larvae of the mustard beetle (Phaedon cochleariae).
After 7 days, the efficacy in % is determined. 100% means that all the beetle larvae have been killed; 0% means that no beetle larvae have been killed.

Test [5] deals with Myzus persicae. Description: Myzus persicae oral test. As to conditions: 120 h, after 5 days, read-out: efficacy in %. Here is the method: Myzus persicae—Oral Test [table] To produce a suitable active ingredient formulation, 1 part by weight of active ingredient is dissolved with the stated parts by weight of solvent and made up to the desired concentration with water. 50 μl of the active ingredient formulationare transferred into microtitre plates and made up to a final volume of 200 μl with 150 μl of IPL41 insect medium (33% +15% sugar). Subsequently, the plates are sealed with parafilm, which a mixed population of green peach aphids (Myzus persicae) within a second microtitre plate is able to puncture and imbibe the solution. After 5 days, the efficacy in % is determined. 100% means that all the aphids have been killed; 0% means that no aphids have been killed.

Test [6] concerns Myzus persicae. Put plainly: Myzus persicae spray test. As to conditions: foliar, 120 h, application rate 100 g/ha, spray on Chinese cabbage leaf discs, after 5 days, read-out: efficacy in %. The protocol: Myzus persicae—Spray Test [table] To produce a suitable active ingredient formulation, 1 part by weight of active ingredient is dissolved with the specified parts by weight of solvent and made up to the desired concentration with water containing an emulsifier concentration of 1000 ppm. To produce further test concentrations, the formulation is diluted with emulsifier-containing water. Discs of Chinese cabbage leaves (Brassica pekinensis) infested by all stages of the green peach aphid (Myzus persicae) are sprayed with an active ingredient formulation of the desired concentration. After 5 days, the efficacy in % is determined. 100% means that all the aphids have been killed; 0% means that no aphids have been killed.

In test [7] the test system is Musca domestica. Description: Musca domestica test. As to conditions: adult houseflies, after 2 days. The protocol: Musca domestica Test Solvent: dimethyl sulfoxide To produce a suitable active ingredient formulation, 10 mg of active ingredient are mixed with 0.5 ml of dimethyl sulfoxide, and the concentrate is diluted with water to the desired concentration. Vessels containing a sponge treated with sugar solution and the active ingredient formulation of the desired concentration are populated with 10 adult houseflies (Musca domestica). After 2 days, the kill in % is determined. 100% means that all of the flies have been killed; 0% means that none of the flies have been killed.

Test [8] has as its system Ctenocephalides felis. Put plainly: Ctenocephalides felis oral test. As to conditions: application rate 100 ppm in citrated cattle blood, adult cat fleas, after 2 days. Here is the method: Ctenocephalides felis—Oral Test Solvent: dimethyl sulfoxide To produce a suitable active ingredient formulation, 10 mg of active ingredient are mixed with 0.5 ml of dimethyl sulfoxide. Dilution with citrated cattle blood gives the desired concentration. About 20 unfed adult cat fleas (Ctenocephalides felis) are placed into a chamber which is closed at the top and bottom with gauze. A metal cylinder whose bottom end is closed with parafilm is placed onto the chamber. The cylinder contains the blood/active ingredient formulation, which can be imbibed by the fleas through the parafilm membrane. After 2 days, the kill in % is determined. 100% means that all of the fleas have been killed; 0% means that none of the fleas have been killed.

Test [9] relates to Spodoptera frugiperda. Description: Spodoptera frugiperda spray test. As to conditions: application rate 100 g/ha, spray on maize leaf discs, caterpillars, after 7 days. Here is the method:
Spodoptera frugiperda—Spray Test [table] To produce a suitable active ingredient formulation, 1 part by weight of active ingredient is dissolved with the specified parts by weight of solvent and made up to the desired concentration with water containing an emulsifier concentration of 1000 ppm. To produce further test concentrations, the formulation is diluted with emulsifier-containing water. Leaf discs of maize (Zea mays) are sprayed with an active ingredient formulation of the desired concentration and, after drying, populated with caterpillars of the armyworm (Spodoptera frugiperda). After 7 days, the efficacy in % is determined. 100% means that all the caterpillars have been killed; 0% means that no caterpillar has been killed.

Test [10] relates to Rhipicephalus sanguineus. Put plainly: Rhipicephalus sanguineus in vitro contact test with adult brown dog ticks. Particulars: application rate 5 μg/cm^2 (=500 g/ha), after 48 h. The protocol: Rhipicephalus sanguineus—In Vitro Contact Test with Adult Brown Dog Ticks For the coating of the test tubes, 9 mg of active ingredient are first dissolved in 1 ml of acetone p.a. and then diluted to the desired concentration with acetone p.a. 250 µl of the solution are distributed homogeneously on the inner walls and the base of a 25 ml glass tube by turning and rocking on an orbital shaker (rocking rotation at 30 rpm for 2 h). With 900 ppm of active ingredient solution and internal surface area 44.7 cm^2, given homogeneous distribution, an area-based dose of 5 μg/cm^2 is achieved. After the solvent has evaporated off, the tubes are populated with 5-10 adult dog ticks (Rhipicephalus sanguineus), sealed with a perforated plastic lid and incubated in a horizontal position in darkness at room temperature and ambient humidity. After 48 h, efficacy is determined. To this end, the ticks are knocked to the base of the tube and incubated on a hotplate at 45-50° C. for a maximum 5 min. Ticks which remain motionless at the base or move in such an uncoordinated manner that they cannot attempt to escape from the heat by climbing upward are considered to be dead or moribund. […] 100% efficacy means that all the ticks were dead or moribund. 0% efficacy means that no ticks were harmed.

Structures are written as SMILES.

Consider `CCS(=O)(=O)c1c(-c2nc3cc(C(F)(F)F)cnc3n2C)nc(C2CC2)n1C` [Example I-2, 2-[2-Cyclopropyl-5-(ethylsulfonyl)-1-methyl-1H-imidazol-4-yl]-3-methyl-6-(trifluoromethyl)-3H-imidazo[4,5-b]pyridine], for which the “efficacy (fleas dead or moribund)” value in [1] was 100%. For the same compound, the efficacy in % is reported as 90% in test [2] and 100% in [9]. The “efficacy (kill in %)” value amounted to 100% in test [3], 90% in test [7] (application rate 20 ppm), 80% in test [7] (application rate 100 ppm) and 100% in [8]. Further, the figures for the pest or weed control at 100 g/ha in [4] and in [6] were 100% and 90%, respectively. In addition, the pest or weed control at 0.8 ppm in test [5] (application rate 0.8 ppm) amounted to 100%. For the same compound, the pest or weed control at 4 ppm in test [5] (application rate 4 ppm) was 100%. Further, in test [5] (application rate 20 ppm), the pest or weed control at 20 ppm was 100%. For the same compound, the “efficacy (ticks dead or moribund)” value in [10] came to 100%.

The values above are taken from patent publication US11058115B2, “Heterocycle derivatives as pesticides” (Bayer Aktiengesellschaft, priority 2017, dated 2021).
